Measured values reported in PMC9467581 (Journal of Enzyme Inhibition and Medicinal Chemistry, 2022).
Structures can show the parent of a compound that is named as a salt. Where two headings read alike, the source gives them in different places.

Legend:
[1] = molecular target: AChE; settings: mixed inhibition of AChE; cited from earlier work
[2] = molecular target: T1, eqBuChE (BuChE from equine serum) (Equus caballus, UniProt P81908); assay: biochemical; format: biochemical; settings: for BuChE selectivity: IC50(AChE)/IC50(BuChE); for IC50: [S] = 112 µM, mean ± SD
T1 construct: eqBuChE (BuChE from equine serum); from tissue; host or cells: equine serum
T1 sequence (P81908 whole entry): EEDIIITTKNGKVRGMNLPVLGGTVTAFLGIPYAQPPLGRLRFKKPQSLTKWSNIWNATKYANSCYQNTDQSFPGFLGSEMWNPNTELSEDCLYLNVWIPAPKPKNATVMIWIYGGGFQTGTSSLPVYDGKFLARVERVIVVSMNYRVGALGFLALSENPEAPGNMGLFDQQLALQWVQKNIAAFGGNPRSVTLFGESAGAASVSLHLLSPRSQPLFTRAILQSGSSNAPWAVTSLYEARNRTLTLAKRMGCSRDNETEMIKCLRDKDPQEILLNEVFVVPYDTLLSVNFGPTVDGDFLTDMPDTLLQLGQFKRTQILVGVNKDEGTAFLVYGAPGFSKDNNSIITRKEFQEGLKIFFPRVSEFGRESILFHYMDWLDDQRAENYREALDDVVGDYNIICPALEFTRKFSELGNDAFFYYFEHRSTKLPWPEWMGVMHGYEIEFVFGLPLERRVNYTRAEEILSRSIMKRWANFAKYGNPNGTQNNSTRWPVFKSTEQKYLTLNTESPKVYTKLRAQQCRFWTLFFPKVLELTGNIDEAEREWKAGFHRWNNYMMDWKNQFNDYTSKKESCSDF
Procedure: (§1) The inhibitory activity of 12a–12d against AChE and BuChE was carried out following minor modifications of the Ellman assay,[30] as reported previously[31] using Thermo Scientific^TM Varioskan^TM LUX microplate reader and Greiner F-bottom 96-well plates.

[3] = molecular target: T2, eeAChE (AChE from Electrophorus electricus) (Electrophorus electricus, UniProt O42275); assay: biochemical; settings: [S] = 121 µM; mean ± SD
T2 sequence (O42275 24-633): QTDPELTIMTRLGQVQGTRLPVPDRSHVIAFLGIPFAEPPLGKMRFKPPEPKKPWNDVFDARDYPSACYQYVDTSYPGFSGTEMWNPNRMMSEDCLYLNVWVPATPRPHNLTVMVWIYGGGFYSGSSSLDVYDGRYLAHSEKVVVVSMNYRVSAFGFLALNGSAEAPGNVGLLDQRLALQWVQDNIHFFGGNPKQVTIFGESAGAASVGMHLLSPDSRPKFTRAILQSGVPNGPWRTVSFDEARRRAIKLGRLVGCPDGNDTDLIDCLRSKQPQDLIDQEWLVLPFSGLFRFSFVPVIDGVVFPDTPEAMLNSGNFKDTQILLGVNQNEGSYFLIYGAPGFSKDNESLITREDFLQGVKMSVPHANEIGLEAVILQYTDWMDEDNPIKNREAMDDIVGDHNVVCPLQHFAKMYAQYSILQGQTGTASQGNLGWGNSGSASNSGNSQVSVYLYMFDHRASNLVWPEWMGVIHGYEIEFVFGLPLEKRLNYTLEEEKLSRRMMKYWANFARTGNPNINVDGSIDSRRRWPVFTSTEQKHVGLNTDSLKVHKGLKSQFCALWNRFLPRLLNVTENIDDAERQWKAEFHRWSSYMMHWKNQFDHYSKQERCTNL
Procedure: as §1

[4] = molecular target: BuChE; design: method as in PMID 33228403; settings: mixed inhibition of BuChE; cited from earlier work
[5] = molecular target: T2, eeAChE (AChE from Electrophorus electricus); settings: [S] = 121 µM; cited from earlier work

## OC[C@@H]1[C@@H](O)[C@H](O)[C@@H](O)CN1Cc1cn(CCCCCCNc2c3c(nc4ccccc24)CCCC3)nn1 [Compound 9]
[1]
  Ki: 0.0071 µM
  αKi: 17.4 nM

## OC[C@@H]1[C@@H](O)[C@H](O)[C@@H](O)CN1CCCn1cc(Cn2nnc3ccccc32)nn1 [Compound 12a]
[2]
  BuChE selectivity: >10
  IC50: 50 ± 3 µM
[3]
  IC50: > 500 µM

## COc1ccc(CCOCCCCCCN2C[C@H](O)[C@@H](O)[C@H](O)[C@H]2CO)cc1OC [Compound 10]
[4]
  Ki: 1.4 µM
  αKi: 4.5 µM

## OC[C@@H]1[C@@H](O)[C@H](O)[C@@H](O)CN1CCCCCCCCn1cc(Cn2nnc3ccccc32)nn1 [Compound 12c, N-(1-(2-((1H-benzo[1,2,3]triazol-1-yl)methyl)-1H-1,2,3-triazol-1-yl)octyl)-1-deoxynojirimycin hydrochloride]
[2]
  BuChE selectivity: >19
  IC50: 26 ± 0.7 µM
[3]
  IC50: > 500 µM

## OC[C@H]1NC[C@H](O)[C@@H](O)[C@@H]1O [Compound 4, 1-deoxynojirimycin, reference compound]
[2]
  BuChE selectivity: >10
[5]
  IC50: > 100 µM

## OC[C@@H]1[C@@H](O)[C@H](O)[C@@H](O)CN1CCCCCCn1cc(Cn2nnc3ccccc32)nn1 [Compound 12b]
[2]
  fold more potent BuChE inhibitor than 1-DNJ: 1.5 fold
  BuChE selectivity: 9.7
  IC50: 6.7 ± 0.7 µM
[2]; BuChE, Cornish-Bowden plots
  uncompetitive inhibition constant αKi: 12 ± 1 µM
[2]; BuChE, Cornish-Bowden plots (1/V vs. [I] and [S]/V vs. [I])
  type of inhibition: mixed inhibitor
[2]; BuChE, Cornish-Bowden plots, read-out: competitive inhibition constant Ki
  Ki: 4.9 ± 0.4 µM
[3]
  IC50: 65 ± 2 µM

## OC[C@@H]1[C@@H](O)[C@H](O)[C@@H](O)CN1CCCCCNC(=[Se])Nc1ccc(Br)cc1 [Compound 8]
[1]
  Ki: 5.8 µM

## OC[C@@H]1[C@@H](O)[C@H](O)[C@@H](O)CN1CCCCCCCCCCn1cc(Cn2nnc3ccccc32)nn1 [Compound 12d, N-(1-(2-((1H-benzo[1,2,3]triazol-1-yl)methyl)-1H-1,2,3-triazol-1-yl)decyl)-1-deoxynojirimycin hydrochloride]
[2]
  IC50: 17 ± 0.7 µM
[3]
  IC50: > 500 µM
